Read-outs that look alike come from different tables or passages of the source.
Tests used:
DGKα = DGKα (Homo sapiens (Human), UniProt P23743); experiment: biochemical; assay type: biochemical; details: liposome (LIPGLO) assay; read-out: DGKα LIPGLO IC50
human DGKζ = human DGKζ (Homo sapiens (Human), UniProt Q13574); experiment: biochemical; assay type: biochemical; details: liposome (LIPGLO) assay; read-out: DGKζ LIPGLO IC50
naïve human CD8 T cells = experiment: CellTiter-Glo CD8 T cell proliferation assay; assay type: cell-based; details: Homo sapiens, read-out: CD8 GLO Normalized EC50
Method: Assay 4: CellTiter-Glo CD8 T Cell Proliferation Assay
Frozen naïve human CD8 T cells were thawed in RPMI+10% FBS, incubated for 2 h in 37° C., and counted. The 384-well tissue culture plate was coated overnight at 4° C. with 20 μl anti-human CD3 at 0.1 μg/mL in plain RPMI, which was removed off the plate before 20 k/40 μL CD8 T cells with 0.5 μg/ml soluble anti-human CD28 were added to each well. The compounds were echoed to the cell plate immediately after the cells were plated. After 72 h incubation at 37° C. incubator, 10 μL CellTiter-glo reagent (Promega catalog number G7570) was added to each well. The plate was vigorously shaken for 5 mins, incubated at room temperature for another 15 mins and read on Envision for CD8 T cell proliferation. In analysis, 0.1 μg/mL anti-CD3 and 0.5 μg/mL anti-CD28 stimulated CD8 T cell signal was background.

[1] = test system: OT-1 CD8+ T cells with SIINFEKL-loaded MC38 tumor cells; experiment: Murine cytotoxic T lymphocyte assay (IFN-γ); assay type: cell-based, mouse; details: Mus musculus, MC-38; murine cytotoxic T lymphocyte, IFN-γ; read-out: msCTL INFg IC50
From the text: Assay 6: Murine Cytotoxic T Lymphocyte Assay
An antigen-specific cytolytic T-cell (CTL) assay was developed to evaluate functionally the ability of DGKα and DGKζ inhibitors to enhance effector T cell mediated tumor cell killing activity. CD8+ T-cells isolated from the OT-1 transgenic mouse recognize antigen presenting cells, MC38, that present the ovalbumin derived peptide […]. Recognition of the cognate antigen initiates the cytolytic activity of the OT-1 antigen-specific CD8+ T cells.
Functional CTL cells were generated as follows: OT-1 splenocytes from 8-12 week old mice were isolated and expanded in the presence of the […] peptide at 1 μg/mL and mIL2 at 10 U/mL. After three days, fresh media with […] was added. On day 5 of the expansion, the CD8+ T cells were isolated and ready for use. Activated CTL cells may be stored frozen for 6 months. Separately, one million MC38 tumor cells were pulsed with 1 μg/mL of […]-OVA peptide for 3 hours at 37° C. The cells were washed (3×) with fresh media to remove excess peptide. Finally, CTL cells that were pretreated with DGK inhibitors for 1 hour in a 96-well U bottom plate were combined with the antigen loaded MC38 tumor cells at a 1:10 ratio. The cells were then spun at 700 rpm for 5 min and placed in an incubator overnight at 37° C. After 24 hours, the supernatant was collected for analysis of IFN-γ cytokine levels by AlphaLisa purchased from Perkin Elmer.

[2] = test system: Human venous whole blood (IFN-γ); experiment: Human whole blood IFN-γ assay; assay type: cell-based; details: Homo sapiens, 24 h, human whole blood, anti-CD3 plus anti-CD28, 24 hours; read-out: INFg Whole Blood Normalized Agonist EC50
Method: Assay 10: Human Whole Blood IFN-γ Assay
Human venous whole blood (22.5 μL per well), obtained from healthy donors, was pre-treated with compounds for one hour at 37° C. in a humidified 95% air/5% CO2 incubator. The blood was stimulated with 2.5 μL anti-human CD3 and anti-CD28 mAb at a final concentration of 1 μg/mL each for 24 hours at 37° C. IFN-γ in the supernatants was measured using AlphLISA kit (Cat #AL217).

[3] = test system: human venous whole blood, CD8 positive population (pERK); experiment: DGK human whole blood pERK assay; assay type: cell-based; details: for EC50: top concentration 20 μM
Procedure, shortened: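 Read-out is the pERK-positive fraction of CD8+ cells measured by flow cytometry. Donor venous blood (heparin) saw compound for one hour at 37° C before a 15-minute anti-CD3 challenge (1 μg/mL final) with cross-linking anti-mouse IgG.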

full length human DGKζ = full length human DGKζ (Homo sapiens (Human), UniProt Q13574); experiment: In vitro DGK inhibition assay, Method B (DGKζ LIPGLO, extruded liposomes); assay type: biochemical; details: liposome (LIPGLO) assay; read-out: DGKζ LIPGLO IC50
[4] = read-out: DGK HWB (human whole blood pERK), human whole blood, CD8 positive population, anti-CD3 stimulation

Chain of full length human DGKζ (Q13574 whole entry, looked up): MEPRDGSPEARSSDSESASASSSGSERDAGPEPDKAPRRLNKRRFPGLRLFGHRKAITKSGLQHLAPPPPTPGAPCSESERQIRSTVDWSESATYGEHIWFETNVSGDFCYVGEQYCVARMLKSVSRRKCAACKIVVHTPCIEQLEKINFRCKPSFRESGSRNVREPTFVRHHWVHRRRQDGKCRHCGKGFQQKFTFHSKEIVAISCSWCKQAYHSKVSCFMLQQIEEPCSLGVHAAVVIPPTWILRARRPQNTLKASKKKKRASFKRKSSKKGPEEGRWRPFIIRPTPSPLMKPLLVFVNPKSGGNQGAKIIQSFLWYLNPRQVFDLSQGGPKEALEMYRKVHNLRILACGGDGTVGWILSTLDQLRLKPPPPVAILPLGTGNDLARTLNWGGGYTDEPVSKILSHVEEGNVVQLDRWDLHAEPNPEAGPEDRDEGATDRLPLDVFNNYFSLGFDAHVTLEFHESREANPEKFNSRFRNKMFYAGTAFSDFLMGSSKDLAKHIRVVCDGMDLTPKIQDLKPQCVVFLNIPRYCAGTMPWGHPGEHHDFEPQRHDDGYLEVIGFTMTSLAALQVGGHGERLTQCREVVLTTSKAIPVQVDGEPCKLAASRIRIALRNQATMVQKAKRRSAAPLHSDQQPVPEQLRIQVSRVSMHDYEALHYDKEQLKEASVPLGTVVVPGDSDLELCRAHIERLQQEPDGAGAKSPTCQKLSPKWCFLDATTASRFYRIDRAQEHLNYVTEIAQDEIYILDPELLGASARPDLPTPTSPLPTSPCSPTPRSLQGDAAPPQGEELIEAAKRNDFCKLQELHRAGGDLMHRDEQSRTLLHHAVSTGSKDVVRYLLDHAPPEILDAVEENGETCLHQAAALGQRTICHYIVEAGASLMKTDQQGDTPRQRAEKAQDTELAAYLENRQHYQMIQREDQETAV
Chain of human DGKζ (Q13574 whole entry, looked up): as above
Chain of DGKα (P23743 whole entry, looked up): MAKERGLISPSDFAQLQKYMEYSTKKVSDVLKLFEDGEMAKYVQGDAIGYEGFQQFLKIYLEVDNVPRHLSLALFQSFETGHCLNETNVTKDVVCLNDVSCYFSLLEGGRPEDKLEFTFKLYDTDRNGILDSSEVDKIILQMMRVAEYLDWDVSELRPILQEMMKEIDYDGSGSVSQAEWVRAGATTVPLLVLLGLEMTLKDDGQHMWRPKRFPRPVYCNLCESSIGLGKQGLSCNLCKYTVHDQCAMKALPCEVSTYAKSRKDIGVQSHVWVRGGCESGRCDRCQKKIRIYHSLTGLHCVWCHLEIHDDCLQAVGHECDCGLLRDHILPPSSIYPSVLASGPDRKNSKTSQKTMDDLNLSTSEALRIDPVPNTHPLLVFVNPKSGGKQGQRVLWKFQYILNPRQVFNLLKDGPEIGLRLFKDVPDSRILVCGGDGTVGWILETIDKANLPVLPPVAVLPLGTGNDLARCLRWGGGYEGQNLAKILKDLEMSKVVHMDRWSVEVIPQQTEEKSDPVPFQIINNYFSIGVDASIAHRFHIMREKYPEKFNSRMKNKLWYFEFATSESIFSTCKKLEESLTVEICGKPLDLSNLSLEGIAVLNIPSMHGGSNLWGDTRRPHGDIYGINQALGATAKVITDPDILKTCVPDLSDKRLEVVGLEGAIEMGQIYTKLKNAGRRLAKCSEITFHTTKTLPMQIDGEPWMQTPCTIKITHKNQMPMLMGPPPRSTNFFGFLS

SMILES | IC50 (DGKα) [µM] | IC50 (human DGKζ) [µM] | EC50 (naïve human CD8 T cells) [µM] | IC50 [1] [µM] | EC50 [2] [µM] | IC50 ([3]; human whole blood, CD8 positive population, read-out: DGK HWB pERK IC50) [µM] | IC50 (full length human DGKζ) [µM] | EC50 ([3]; Homo sapiens, CD8 positive, read-out: DGK HWB (human whole blood pERK), human whole blood, CD8 positive population, anti-CD3 stimulation) [µM] | EC50 ([3]; human whole blood, CD8 positive population, anti-CD3 stimulation, read-out: DGK HWB (human whole blood pERK)) [µM] | EC50 [3, 4] [µM]
Cn1c(=O)c([N+](=O)[O-])c(N2CCC(Oc3ccc(OC(F)(F)F)cc3)CC2)c2nc(C#N)ccc21 [Example 51, 5-methyl-7-nitro-6-oxo-8-(4-(4-(trifluoromethoxy)phenoxy)piperidin-1-yl)-5,6-dihydro-1,5-naphthyridine-2-carbonitrile] | 0.23 | 3 | 0.14 | 0.18 | 1.7 | 2.5 |  |  |  | 
Cn1c(=O)c(C#N)c(N2CCC(Oc3ccccc3C(F)(F)F)CC2)c2nc(Cl)ccc21 [Example 11, 6-chloro-1-methyl-2-oxo-4-(4-(2-(trifluoromethyl)phenoxy)piperidin-1-yl)-1,2-dihydro-1,5-naphthyridine-3-carbonitrile] | 12 | 150 | 10 | 0.83 | 10 |  |  |  |  | 
COc1ccc(OC2CCN(c3c(C#N)c(=O)n(C)c4ccc(Cl)nc34)CC2)cc1 [Example 14, 6-chloro-4-(4-(4-methoxyphenoxy)piperidin-1-yl)-1-methyl-2-oxo-1,2-dihydro-1,5-naphthyridine-3-carbonitrile] | 0.25 | 13 | 0.28 | 0.83 | 7 |  |  |  |  | 
CCO[C@H]1CN(c2nc(=O)n(C)c3ccc(C#N)nc23)CC[C@@H]1Oc1ccc(C(F)(F)F)cc1 [Example 405, 4-((3S,4S)-3-ethoxy-4-(4-(trifluoromethyl)phenoxy)piperidin-1-yl)-1-methyl-2-oxo-1,2-dihydropyrido[3,2-d]pyrimidine-6-carbonitrile] |  |  |  |  |  |  | 14 |  |  | 
COc1cccc(OC2CCN(c3c(C#N)c(=O)n(C)c4ccc(Cl)nc34)CC2)c1 [Example 10, 6-chloro-4-(4-(3-methoxyphenoxy)piperidin-1-yl)-1-methyl-2-oxo-1,2-dihydro-1,5-naphthyridine-3-carbonitrile] | 0.15 | 2.8 | 0.14 | 4.5 | 5 |  |  |  |  | 
COc1ccc2c(n1)c(N1CCC(Oc3ccc(OC(F)(F)F)cc3)CC1)c(C#N)c(=O)n2C [Example 48, 6-methoxy-1-methyl-2-oxo-4-(4-(4-(trifluoromethoxy)phenoxy)piperidin-1-yl)-1,2-dihydro-1,5-naphthyridine-3-carbonitrile] | 2.7 | 3.4 | 0.13 | 0.27 | 6.4 |  |  |  |  | 
Cn1c(=O)c(C#N)c(N2CCC(Oc3ccc(OC(F)(F)F)cc3)CC2)c2nc(C#N)ccc21 [Example 50, 5-methyl-6-oxo-8-(4-(4-(trifluoromethoxy)phenoxy)piperidin-1-yl)-5,6-dihydro-1,5-naphthyridine-2,7-dicarbonitrile] | 1.6 | 12 | 0.055 | 0.99 | 5 |  |  |  |  | 
CCO[C@H]1CN(c2cc(=O)n(C)c3ccc(C#N)nc23)CC[C@@H]1Oc1ccc(OC(C)C)nn1 [Example 376, 8-((3S,4S)-3-ethoxy-4-((6-isopropoxypyridazin-3-yl)oxy)piperidin-1-yl)-5-methyl-6-oxo-5,6-dihydro-1,5-naphthyridine-2-carbonitrile] |  |  |  |  |  |  | 14 | 20 |  | 
CCO[C@H]1CN(c2cc(=O)n(C)c3ccc(C#N)nc23)CC[C@@H]1Oc1ccc(OC(C)C)cn1 (relative stereo) [Example 398, trans-8-(4-((5-Isopropoxypyridin-2-yl)oxy)-3-ethoxypiperidin-1-yl)-5-methyl-6-oxo-5,6-dihydro-1,5-naphthyridine-2-carbonitrile] |  |  |  |  |  |  | 1.2 |  | 2.8 | 
Cn1c(=O)c(C#N)c(N2CCC(Oc3cccc(OC(F)(F)F)c3)CC2)c2nc(Cl)ccc21 [Example 13, 6-chloro-1-methyl-2-oxo-4-(4-(3-(trifluoromethoxy)phenoxy)piperidin-1-yl)-1,2-dihydro-1,5-naphthyridine-3-carbonitrile] | 2 | 240 | 1.2 | 1.5 | 5 |  |  |  |  | 
Cn1c(=O)c(C#N)c(N2CCC(Oc3ccc(OC(F)(F)F)c(F)c3)CC2)c2nc(Cl)ccc21 [Example 17, 6-chloro-4-(4-(3-fluoro-4-(trifluoromethoxy)phenoxy)piperidin-1-yl)-1-methyl-2-oxo-1,2-dihydro-1,5-naphthyridine-3-carbonitrile] | 1.1 | 240 | 0.47 | 1.1 | 10 |  |  |  |  | 
Cn1c(=O)c([N+](=O)[O-])c(N2CCC(Oc3ccc(OC(F)(F)F)cc3)CC2)c2cc(F)ccc21 [Example 3, 6-fluoro-1-methyl-3-nitro-4-(4-(4-(trifluoromethoxy)phenoxy)piperidin-1-yl)quinolin-2(1H)-one] | 0.11 | 240 | 0.49 | 1.5 | 10 |  |  |  |  | 
Cn1c(=O)c(C#N)c(N2CCC(Oc3ccc(F)c(F)c3)CC2)c2nc(Cl)ccc21 [Example 12, 6-chloro-4-(4-(3,4-difluorophenoxy)piperidin-1-yl)-1-methyl-2-oxo-1,2-dihydro-1,5-naphthyridine-3-carbonitrile] | 3.2 | 27 | 2.3 | 3.8 | 5 |  |  |  |  | 
Cn1c(=O)cc(N2CC[C@@H](Oc3cccc(C(F)(F)F)c3)[C@H](OCC(F)(F)F)C2)c2nc(C#N)ccc21 [Example 394, 5-methyl-6-oxo-8-((3R,4R)-3-(2,2,2-trifluoroethoxy)-4-(3-(trifluoromethyl)phenoxy)piperidin-1-yl)-5,6-dihydro-1,5-naphthyridine-2-carbonitrile] |  |  |  |  |  |  | 51 |  |  | 6.2
Cn1c(=O)c(C#N)c(N2CCC(Oc3ccccc3)CC2)c2nc(Cl)ccc21 [Example 46, 6-chloro-1-methyl-2-oxo-4-(4-phenoxypiperidin-1-yl)-1,2-dihydro-1,5-naphthyridine-3-carbonitrile] | 0.15 | 27 | 1.2 | 8.5 |  |  |  |  |  | 
Cn1c(=O)c(C#N)c(N2CCC(Oc3ccc(OC(C)(C)C)cc3)CC2)c2nc(Cl)ccc21 [Example 31, 4-(4-(4-(tert-butoxy)phenoxy)piperidin-1-yl)-6-chloro-1-methyl-2-oxo-1,2-dihydro-1,5-naphthyridine-3-carbonitrile] | 0.28 | 11 | 0.044 | 10 |  |  |  |  |  | 
COCCO[C@@H]1CN(c2cc(=O)n(C)c3ccc(C#N)nc23)CC[C@H]1Oc1cccc(C(F)(F)F)c1 [Example 390, 8-((3R,4R)-3-(2-methoxyethoxy)-4-(3-(trifluoromethyl)phenoxy)piperidin-1-yl)-5-methyl-6-oxo-5,6-dihydro-1,5-naphthyridine-2-carbonitrile] |  |  |  |  |  |  | 1.9 |  |  | 20
Cc1cc(F)cc(OC2CCN(c3c([N+](=O)[O-])c(=O)n(C)c4ccc(F)cc34)CC2)c1 [Example 1, 6-fluoro-4-(4-(3-fluoro-5-methylphenoxy)piperidin-1-yl)-1-methyl-3-nitroquinolin-2(1H)-one] | 0.24 | 100 | 1.6 | 5.2 | 10 |  |  |  |  | 

— US11964973B2 (priority 2019, dated 2024)
